Where two headings read alike, the source gives them in different places.
Assays:
MOLM-13 cells = experiment: Cell proliferation test on MOLM-13 cells (Cellriter-Glo); assay type: cell-based; conditions: Homo sapiens
Method: Cell plating: Cells were plated when they grow to a logarithmic growth phase. The cells were collected and the cell density was adjusted to 6×10^4 cells/mL; then the cell suspension is then poured into a loading slot and added into a 96-well cell culture plate at 50 μL/well (3000 cells/well viable cells). Note: the cells in the loading slot were well mixed while plating; cell information and plating date were labeled on the 96-well plates. NC wells (control wells) and BG wells (background wells) were provided. […] 50 μL/well of the compounds were added to the 96-well plate in which the cells were already plated. Incubation was carried out at 37° C., 5% CO2 for a period of time. Cell proliferation test: After incubation in the incubator for a period of time, 50 μL of […]-Glo Reagent per well was added. The plate was shaken at room temperature (500 rpm), incubated for 10 min in the dark, and then the […] was measured with a microplate reader. The mean background value was calculated. [formula] […] Specific data were presented in the form of graphs.

[1] = Pharmacokinetic test in mice; assay type: in vivo; conditions: male C57 mice, plasma
Method: • 2.1 Experimental animals: male C57 mice, 18-20 g, 6 mice/compound or 12 mice/compound. • 2.2 Experimental design: the C57 mice were randomly grouped according to their body weights. The animals were fasted with water available for 12 to 14 h one day before the administration, and were fed 4 h after the administration.
Vehicle for intravenous administration: 5% DMA+5% Solutol+90% Saline; vehicle for intragastric administration: 0.5% MC; • (DMA: dimethylacetamide; Solutol: polyethylene glycol-15-hydroxystearate; Saline: physiological saline; MC: Methyl cellulose solution)
Before and after the administration, 0.06 mL of blood was taken from the orbit of the animals under isoflurane anesthesia and placed in an EDTAK2 centrifuge tube. The blood was centrifuged at 5000 rpm and 4° C. for 10 min to collect the plasma. The blood collection time points for the intravenous administration group and intragastric administration group were 0 min, 5 min, 15 min, 30 min, 1 h, 2 h, 4 h, 7 h and 24 h. Before analysis and detection, all samples were stored at −80° C.

[2] = biological target: T1, hERG potassium ion channel (Homo sapiens, UniProt Q12809); experiment: Test for hERG potassium ion channel (manual patch-clamp, CHO cells); assay type: cell-based; conditions: CHO cells stably expressing hERG, whole cell patch-clamp, room temperature; read-out: IC50 for the inhibitory effect on hERG potassium channel current
T1 construct: expressed in transfected cells
From the text: Experimental platform: electrophysiological manual patch-clamp system Cell line: Chinese hamster ovary (CHO) cell lines stably expressing hERG potassium ion channel
Experimental method: in CHO (Chinese Hamster Ovary) cells stably expressing hERG potassium channel, whole cell patch-clamp technique was used to record hERG potassium channel current at room temperature. The glass microelectrode was made of a glass electrode blank (BF150-86-10, Sutter) by a puller. The tip resistance after filling the liquid in the electrode was about 2-5 MO. The glass microelectrode can be connected to the patch-clamp amplifier by inserting the glass microelectrode into an amplifier probe. The clamping voltage and data recording were controlled and recorded by the pClamp 10 software through a computer. The sampling frequency was 10 kHz, and the filtering frequency was 2 kHz. […]
Data processing: Data analysis processing was carried out by using pClamp 10, GraphPad Prism 5 and Excel software. The inhibition degree of hERG potassium current (peak value of hERG tail current induced at −50 mV) at different compound concentrations was calculated by the following formula: […]
Compound IC50 was calculated using GraphPad Prism 5 software by fitting according to the following equation: […]

[3] = MOLM-13, read-out: IC50 on MOLM-13 cells
[4] = MOLM-13 cells, maximum detection concentration 10 μM, read-out: IC50 of compounds on MOLM-13 cells

T1 sequence (Q12809 whole entry): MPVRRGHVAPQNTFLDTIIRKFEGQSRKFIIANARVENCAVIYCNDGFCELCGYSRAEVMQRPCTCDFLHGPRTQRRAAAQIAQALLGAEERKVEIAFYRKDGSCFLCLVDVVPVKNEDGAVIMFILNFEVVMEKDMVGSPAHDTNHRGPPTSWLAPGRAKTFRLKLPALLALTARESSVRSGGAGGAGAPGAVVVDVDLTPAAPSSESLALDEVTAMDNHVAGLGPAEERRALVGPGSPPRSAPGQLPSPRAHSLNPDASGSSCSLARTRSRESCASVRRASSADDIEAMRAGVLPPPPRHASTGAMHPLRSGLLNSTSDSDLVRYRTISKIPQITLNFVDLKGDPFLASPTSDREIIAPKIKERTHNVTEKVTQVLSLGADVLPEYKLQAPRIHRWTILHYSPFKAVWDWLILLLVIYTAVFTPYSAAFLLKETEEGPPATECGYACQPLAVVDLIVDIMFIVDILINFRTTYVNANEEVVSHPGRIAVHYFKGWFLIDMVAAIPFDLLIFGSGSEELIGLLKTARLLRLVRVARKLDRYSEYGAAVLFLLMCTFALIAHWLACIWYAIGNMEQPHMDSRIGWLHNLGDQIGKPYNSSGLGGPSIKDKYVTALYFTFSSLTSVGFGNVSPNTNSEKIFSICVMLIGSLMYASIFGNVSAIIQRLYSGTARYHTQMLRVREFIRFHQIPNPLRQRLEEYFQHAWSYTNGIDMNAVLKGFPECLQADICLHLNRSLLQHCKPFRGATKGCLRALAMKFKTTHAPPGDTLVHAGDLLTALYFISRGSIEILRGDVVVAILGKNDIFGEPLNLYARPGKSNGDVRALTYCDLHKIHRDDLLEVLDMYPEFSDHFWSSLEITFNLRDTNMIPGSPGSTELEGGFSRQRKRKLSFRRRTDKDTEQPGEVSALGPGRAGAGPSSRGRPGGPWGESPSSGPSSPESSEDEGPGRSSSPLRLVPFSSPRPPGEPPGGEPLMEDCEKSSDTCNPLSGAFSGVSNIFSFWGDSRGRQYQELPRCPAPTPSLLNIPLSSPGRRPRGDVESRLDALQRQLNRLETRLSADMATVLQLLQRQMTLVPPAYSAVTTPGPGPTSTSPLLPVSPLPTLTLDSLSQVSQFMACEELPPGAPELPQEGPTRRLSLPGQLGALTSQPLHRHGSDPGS

Compound | IC50 (MOLM-13 cells; [4]) | also measured
[2H]C([2H])([2H])n1ccn2c(=O)cc(C(=O)NCc3ccc4cc(CNCC56CC(F)(C5)C6)[nH]c4c3)nc12 [Compound 4] | < 2 µM | IC50 (MOLM-13 cells; [3]): 0.16 µM
O=C(NCc1cc2[nH]c(CNC3CCCCC3)cc2s1)c1cc(=O)n2ccccc2n1 [Compound 20] | 2 to 10 µM | –
CC(C)(C)CNCc1cc2sc(CNC(=O)c3cc(=O)n4ccccc4n3)cc2[nH]1 [Compound 22] | 2 to 10 µM | –
O=C(NCc1ccc2cc(CNCC34CC(F)(C3)C4)[nH]c2c1)c1cc(=O)n2ccccc2n1 [Compound 23 in WO 2021111124] | – | F ([1]; i.g. 10 mg/kg): 31.6%; AUC(0-t) ([1]; mouse, iv, i.v. 2.5 mg/kg): 730 ng·h/mL; clearance ([1]; mouse, iv, i.v. 2.5 mg/kg): 57 mL/min/kg; Vd ([1]; mouse, iv, i.v. 2.5 mg/kg, read-out: Vdss): 2.21 L/kg; AUC(0-t) ([1]; mouse, po, i.g. 10 mg/kg): 923 ng·h/mL
Cn1ccn2c(=O)cc(C(=O)NCc3ccc4cc(CNCC5CCC5)[nH]c4c3)nc12 [Trifluoroacetate of compound 1] | < 2 µM | –
O=C(NCc1ccc2cc(CNCC3CCC3)[nH]c2c1)c1cc(=O)n2cc[nH]c2n1 [Trifluoroacetate of compound 2] | 2 to 10 µM | –
O=C(NCc1ccc2cc(CNCC3CCC3)[nH]c2c1)c1cc(=O)n2ccn(CC3CC3)c2n1 [Trifluoroacetate of compound 5] | 2 to 10 µM | –
CC(C)n1ccn2c(=O)cc(C(=O)NCc3ccc4cc(CNCC5CCC5)[nH]c4c3)nc12 [Trifluoroacetate of compound 6] | 2 to 10 µM | –
CCn1ccn2c(=O)cc(C(=O)NCc3ccc4cc(CNCC56CC(F)(C5)C6)[nH]c4c3)nc12 [Trifluoroacetate of compound 8] | – | IC50 (MOLM-13 cells; MOLM-13, read-out: IC50 of compounds on MOLM-13 cells): < 2 µM
O=C(NCc1ccc2cc(CNCC3CCC3)[nH]c2c1)c1cc(=O)n2ccn(C3CC3)c2n1 [Trifluoroacetate of compound 11] | 2 to 10 µM | –
O=C(NCc1cc2[nH]c(CNCC3CCC3)cc2s1)c1cc(=O)n2ccccc2n1 [Trifluoroacetate of compound 12] | < 2 µM | IC50 [2]: > 30 µM
O=C(NCc1cc2[nH]c(CNCC34CC(F)(C3)C4)cc2s1)c1cc(=O)n2ccn(C(F)F)c2n1 [Trifluoroacetate of compound 14] | 2 to 10 µM | –

More lines, main results first:

IC50 (MOLM-13 cells; [4]) | Compound | also measured
< 2 µM | Cn1ccn2c(=O)cc(C(=O)NCc3ccc4cc(CNCC56CC(F)(C5)C6)[nH]c4c3)nc12 [Compound 3] | IC50 (MOLM-13 cells; [3]): 0.23 µM
2 to 10 µM | O=C(NCc1cc2[nH]c(CNCC3CCC3)cc2s1)c1cc(=O)n2cccc(F)c2n1 [Compound 18] | –
2 to 10 µM | CCn1ccn2c(=O)cc(C(=O)NCc3ccc4cc(CNCC5CCC5)[nH]c4c3)nc12 [Trifluoroacetate of compound 9] | –
< 2 µM | C#CCn1ccn2c(=O)cc(C(=O)NCc3ccc4cc(CNCC5CCC5)[nH]c4c3)nc12 [Trifluoroacetate of compound 10] | –
2 to 10 µM | O=C(NCc1cc2[nH]c(CNCC3CCC3)cc2s1)c1cc(=O)n2cc(F)ccc2n1 [Trifluoroacetate of compound 16] | –
2 to 10 µM | O=C(NCc1cc2[nH]c(CNCC3CCC3)cc2s1)c1cc(=O)n2ccc(C3CC3)cc2n1 [Trifluoroacetate of compound 17] | –

From US20250145627A1, “METTL3 Inhibitor and Composition, and Application of Same in Medicine” (XIZANG HAISCO PHARMACEUTICAL CO., LTD., priority 2022, published 2025)
